Patent US20080139614A1, “Treatment Of Stroke With Histamine H3 Inverse Agonists Or Histamine H3 Antagonists” (priority 2004, published 2008)

Test system: harmaline-induced tremor
Assay: harmaline-induced tremor model in rats
Type: in vivo
Source text: The identification of a compound as a histamine H3 inverse agonist or a histamine H3 antagonist may be readily determined without undue experimentation by methodology well known in the art. The efficacy of a histamine H3 inverse agonist or a histamine H3 antagonist in treating stroke may be readily determined without undue experimentation by methodology well known in the art, for example the harmaline-induced tremor model in rats, Sinton, et al., Pflugers Archive Eur. J. Phys., 414(1) 31-36 (1989). […] The ability of the histamine H3 inverse agonist or histamine H3 antagonist to be used in the present invention to treat stroke may be determined by these methods.

**Q.** Which results are given for N#Cc1ccc(-c2cnc(OC3CCN(C4CCCC4)CC3)nc2)cc1 [2-(1-cyclopentylpiperidine-4-yloxy)-5-(4-cyanophenyl)pyrimidine]?
**A.** reversal of harmaline-induced tremor (dose of 1 mg/kg): 8.4%; reversal of harmaline-induced tremor (dose of 3 mg/kg): 63.3%; reversal of harmaline-induced tremor (dose of 10 mg/kg): 84.4%
